Data on eight molecules can be found in ChEMBL document CHEMBL1131594, “Stereoisomers of cyclic urea HIV-1 protease inhibitors: synthesis and binding affinities” (J Med Chem, 1998).

The target of the test is Human immunodeficiency virus type 1 protease (Human immunodeficiency virus 1, UniProt Q72874). Put plainly: Compound was tested for binding affinity against HIV-1 protease.

Usually Ki stands for the equilibrium dissociation constant of an inhibitor or competing ligand from its target. A low value points to higher affinity. Take `O=C1N(Cc2ccccc2)[C@H](Cc2ccccc2)[C@H](O)[C@H](O)[C@H](Cc2ccccc2)N1Cc1ccccc1`: the Ki was determined as 0.25 µM.

For `O=C1N(Cc2ccccc2)[C@H](Cc2ccccc2)[C@@H](O)[C@H](O)[C@H](Cc2ccccc2)N1Cc1ccccc1`, the Ki is 6.7 µM. This Ki is about 27-fold higher than that of the molecule before. Molecule `O=C1N(Cc2ccccc2)[C@@H](Cc2ccccc2)[C@H](O)[C@H](O)[C@H](Cc2ccccc2)N1Cc1ccccc1` gave a Ki of 1.71 µM. The same measure for `O=C1N(Cc2ccccc2)[C@@H](Cc2ccccc2)[C@@H](O)[C@H](O)[C@H](Cc2ccccc2)N1Cc1ccccc1`: 3.81 µM; for `O=C1N(Cc2ccccc2)[C@H](Cc2ccccc2)[C@H](O)[C@@H](O)[C@H](Cc2ccccc2)N1Cc1ccccc1`: 0.064 µM.

Consider `O=C1N(Cc2ccccc2)[C@@H](Cc2ccccc2)[C@H](O)[C@@H](O)[C@H](Cc2ccccc2)N1Cc1ccccc1`, for which the affinity, expressed as Ki, was 0.56 µM. This Ki lies about 8.8-fold higher than the previous one. The same measure for `O=C1N(Cc2ccccc2)[C@H](Cc2ccccc2)[C@H](O)[C@@H](O)[C@@H](Cc2ccccc2)N1Cc1ccccc1`: 0.0036 µM; for `O=C1N(Cc2ccccc2)[C@H](Cc2ccccc2)[C@@H](O)[C@H](O)[C@@H](Cc2ccccc2)N1Cc1ccccc1`: 1.35 µM.
